Patent publication US20220241240A1, “AGENTS AND METHODS FOR INCREASING STEM CELL FUNCTION” (priority 2019, published 2022)

Assays:
[1] = system: cord blood derived human HSPCs; experiment: In vivo transplantation assay of UroA-cultured hHSPCs in new born NSG-SGM3 pups; settings: hHSPCs cultured 5 days with 50 μM UroA
Description: Next, we cultured cord blood derived human HSPCs without or with UroA (50 μM) and performed two functional assays: Colony Forming Unit (CFU) assay—7 days post culture and in vivo transplantation assay in new born NSG-SGM3 pups—5 days post culture (FIG. 2B). […] Cryopreserved CD34+ cells isolated from foetal liver/cord blood were thawed and cultured in vitro in StemSpan (Stem cell tech) media supplemented with hSCF (100 ng/ml), hFLT3L (100 ng/ml), hTPO (50 ng/ml), hLDLP (10 μg/ml) and different concentrations of UroA (dissolved in DMSO) were added; an equal amount of DMSO was added to the control well. For longer culture periods half of the media was replenished every 2nd or 3rd day. NSG mice were purchased from Jackson Laboratory, bred and maintained under pathogen-free conditions in-house. For transplantation, one day old NSG pups were irradiated with 1 Gy (RS-2000, RAD SOURCE) and a few hours later injected intrahepatically with in vitro expanded HSCs. Each pup was injected with a cell mass derived from an initial 50,000 CD34+ cells post in vitro culture. Mice were bled at 12 weeks to estimate human reconstitution levels (% human CD45+ cells) in the peripheral blood. Antibody combinations were used to further estimate human B cells, T cells, monocytes, neutrophils and NK cells.

[2] = system: cord blood derived human HSPCs; experiment: Colony Forming Unit (CFU) assay in methylcellulose; format: cell-based; settings: hHSPCs cultured 7 days with 50 μM UroA; colonies counted 15 days post plating; versus control
Description: Next, we cultured cord blood derived human HSPCs without or with UroA (50 μM) and performed two functional assays: Colony Forming Unit (CFU) assay—7 days post culture and in vivo transplantation assay in new born NSG-SGM3 pups—5 days post culture (FIG. 2B). […] Cryopreserved CD34+ cells isolated from foetal liver/cord blood were thawed and cultured in vitro in StemSpan (Stem cell tech) media supplemented with hSCF (100 ng/ml), hFLT3L (100 ng/ml), hTPO (50 ng/ml), hLDLP (10 μg/ml) and different concentrations of UroA (dissolved in DMSO) were added; an equal amount of DMSO was added to the control well. For longer culture periods half of the media was replenished every 2nd or 3rd day. CFU assays were carried out using H4434 (Stem cell tech) as per the manufacturer's instructions. 1000 cells from each well were plated in duplicate. Colonies were counted 15 days post plating using Stem Vision (Stem cell tech).

mHSCs [3] = experiment: QPCR gene expression analysis on cultured mHSCs; format: cell-based, mouse; settings: mHSCs cultured with 20 μM UroA versus without
Description: To have analyse the molecular mechanisms by which UroA enhances HSC function, we performed gene expression analysis on mHSCs cultured in basal media with or without UroA (20 μM).
RNA was extracted from HSCs post culture using ZR RNA MicroPrep (Zymo Research) and RNA extraction was performed accordingly to the manufacturer's instructions. RNA was retrotranscribed to cDNA with 1st strand cDNA kit (TAKARA) as per the manufacturer's instructions.
For qPCR, 0.5 μl of cDNA, 5 μl of Power Syber Green mastermix (Applied Biosystem) and 500 nM of primers were used to a final volume of 10 μl for each reaction. The reactions were performed on the 7900HT system (Applied Biosystem).

[4] = system: Human Cord-blood derived HSCPs; experiment: Limiting transplantation experiment: survival of irradiated adult NSG mice given UroA-cultured HSPCs; format: in vivo; settings: HSPCs cultured three days with 50 μM UroA, 40,000 cells per irradiated adult NSG mouse; followed eight months; especially early post-transplant phases
Description: A) Human cord blood derived HSPCs were cultured in basal media with or without 50 μM UroA. Three days post culture cells were counted and limiting dose (40,000 cells) was injected in each irradiated recipient adult NSG mouse and survival was monitored over several months.
In order to check if a short in vitro treatment with UroA could improve the survival of irradiated recipients post transplantation we designed a limiting transplantation experiment. Human Cord-blood derived HSCPs were cultured for three days in the absence or presence of UroA. Post culture cells were counted and 40,000 cells were injected in each recipient mouse (irradiated NSG adult mice). We followed these mice for several months to check for post transplantation survival.

[5] = system: human cord blood derived hematopoietic stem and progenitor cells (hHSPCs); experiment: Mitochondrial membrane potential (TMRM) in cultured hHSPCs (CD34+), flow cytometry; format: cell-based; settings: days 3, 5 and 7, increasing doses of UroA
Description: We then looked at the effect of UroA on human cord blood derived hematopoietic stem and progenitor cells (hHSPCs) (FIG. 1B). Cryopreserved hHSPCs (CD34+) were thawed and cultured in basal media (Stemspan+SCF+FLT3L+TPO+LDLP+Penicillin/Streptomycin) supplemented with different concentrations of UroA. Aliquots of cells were harvested at days 3, 5 and 7, followed by staining for CD34 and TMRM, and analysed by flow cytometry.
Cryopreserved CD34+ cells isolated from foetal liver/cord blood were thawed and cultured in vitro in StemSpan (Stem cell tech) media supplemented with hSCF (100 ng/ml), hFLT3L (100 ng/ml), hTPO (50 ng/ml), hLDLP (10 μg/ml) and different concentrations of UroA (dissolved in DMSO) were added; an equal amount of DMSO was added to the control well. For longer culture periods half of the media was replenished every 2nd or 3rd day.
Human HSCs already in culture were incubated at 37° C. for 1 hour with 200 nM TMRM (Invitrogen). Cells were then washed with FACS buffer, followed by staining with CD34 antibody for 1 hour at 4° C. Cells were washed with FACS buffer and analysed by flow cytometry on a BD LSR II.

[6] = system: bone marrow derived mouse HSCs (mHSCs); experiment: Mitochondrial membrane potential (TMRM) and mitochondrial mass (Mitotracker) in cultured mHSCs, flow cytometry; format: cell-based
Description: We first tested the effect of UroA on bone marrow derived mouse HSCs (mHSCs) (FIG. 1A). Freshly isolated mHSCs (LKS CD150+CD48-) were cultured in basal media (Stemline+SCF+FLT3L+Penicillin/Streptomycin) supplemented with different concentrations of UroA. Cells were harvested at day 3 and stained with tetramethylrhodamine methyl ester (TMRM; to measure mitochondria membrane potential) and Mitotracker (to measure mitochondrial mass), and analysed by flow cytometry.
Flow cytometry analysis was performed on freshly isolated bone marrow (BM) from C571316 mice. BM was extracted from crushed femora and tibia. Cell suspension was filtered through a 70 μm cell strainer and erythroid cells were eliminated by incubation with red blood cell lysis buffer (eBioscences). Isolation and stains were performed in ice-cold PBS 1 mM EDTA. Lineage positive cells were then removed with a magnetic lineage depletion kit (BD biosciences). Cell suspensions were then stained with specific antibodies for the stem cell compartment and sorted by FACS (BD FACS Aria 111) into 1.5 ml Eppendorf tubes.
(§1) Murine HSCs were sorted into 1.5 ml Eppendorf tubes and were cultured in Stemline II (SIGMA) supplemented with 100 ng/ml SCF (R&D) and 2 ng/ml Flt3 (R&D). Different concentrations as indicated of UroA (dissolved in DMSO) were added; an equal amount of DMSO was added to the control well.
Mouse HSCs already in culture were incubated at 37° C. for 1 hour with 200 nM tetramethylrhodamine methyl ester (TMRM; Invitrogen) and 100 nM Mitotracker green. Cells were then washed with FACS buffer and analysed by flow cytometry on a BD LSR II.

mHSCs [7] = experiment: In vivo reconstitution by UroA-cultured mHSCs in lethally irradiated recipient mice; parameters: species or system mouse; settings: mHSCs cultured 3 days with 20 μM UroA, injected into lethally irradiated mice
Description: Having previously shown that lowering mitochondrial membrane potential enhances HSC function (Vannini, N. et al. (2016) Nat Commun 7: 13125), we asked if UroA treatment improves in vivo reconstitution potential of HSCs. To that end, we cultured freshly isolated mHSCs in basal media without or with UroA (20 μM). At the end of the culture period (3 days) cells were counted and injected into lethally irradiated recipient mice (FIG. 2A).
as §1
C57131/6 Ly5.2 mice were lethally irradiated with a total 8 Gy dose in a gamma radiator 24 h before transplant. Mice were injected with 200 donor cells post culture derived from C57131/6 Ly5.1 mice and 200,000 competitor cells derived from C57131/6 Ly5.1/5.2 mice, via tail-vein injection. Peripheral blood was collected every few weeks to determine the percentage of chimerism by FACS analysis.

human HSCs = settings: culture media supplemented with nicotinamide riboside; cited from earlier work

For `O=c1oc2cc(O)ccc2c2ccc(O)cc12` [UroA, 3,8-dihydroxyurolithin], the “human cell numbers in blood cell lineages” value ([1]; NSG-SGM3 mice, primarily lymphoid lineage (T and B cells)) was “higher human cell numbers”, the “human engraftment (proportion and absolute numbers) in blood” value ([1]; transplanted in irradiated NSG-SGM3 pups) was “increased human engraftment” and the “numbers of colonies (CFU assay)” value [2] was “significantly higher numbers of colonies”. For the same compound, the “expression of ROS protection genes (Foxo1, SOD2), fold change (delta delta CT)” value (mHSCs [3]) was “increased expression”, the “expression of autophagy genes (ATGS, PARK2), fold change (delta delta CT)” value (mHSCs [3]) was “increased expression” and the “expression of glycolysis genes (HK2, Glut1), fold change (delta delta CT)” value (mHSCs [3]) was “increased expression”. For the same compound, the “post transplantation survival of recipient mice” value [4] was “significant improvement in survival”, the “TMRM signal (Median Fluorescence Intensity, MFI)” value [5] was “concomitant decrease of TMRM signal” and the “proportions of cells in the TMRM low gate” value [5] was “increasing proportions of cells in the TMRM^low gate”. The “proportion of cells in the TMRM low gate” value ([6]; mHSCs (LKS CD150+CD48-), day 3 of culture, increasing doses of UroA) was “step-wise increase”, the “mitochondrial mass (Mitotracker staining)” value ([6]; mHSCs, day 3, 20 μM UroA) was “significant reduction” and the “mitochondrial mass (Mitotracker staining)” value ([6]; mHSCs, day 3, all concentrations of UroA) was “decrease in the mitochondrial mass”. The “TMRM fluorescent intensity (Mean Fluorescence Intensity, MFI)” value ([6]; mHSCs, day 3 of culture, increasing doses of UroA) was “significant lowering”, the “reconstitution in myeloid and lymphoid lineages of the blood” value (mHSCs [7]) was “This trend was reflected in both the myeloid and lymphoid lineages” and the “blood reconstitution levels of recipients” value (mHSCs [7]; versus cells cultured without UroA) was “higher reconstitution levels”.
For `NC(=O)c1ccc[n+]([C@@H]2O[C@H](CO)[C@@H](O)[C@H]2O)c1` [nicotinamide riboside], the “levels of engraftment in primary and secondary recipient humanised mice” value (human HSCs) is listed as “significantly higher levels of engraftment”.
